According to US20240132513A1, “BENZAZEPINE DERIVATIVES, COMPOSITIONS, AND METHODS FOR TREATING COGNITIVE IMPAIRMENT” (AGENEBIO, INC., priority 2022, published 2024):
Read-outs that look alike come from different tables or passages of the source.

Columns and labels:
α5β3γ2 GABAA R = α5β3γ2 GABAA R (Homo sapiens, UniProt P18507+P31644); test: Binding activity on GABAA R: inhibition of [3H]Ro15-1788 binding, α5 containing receptor
Method in brief: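 Displacement of [3H]Ro15-1788 (flumazenil) measured at 4 °C over 1 h using 0.2 mg/ml membrane protein from Ltk cells carrying α5β3γ2 GABAA receptors, expression induced with 0.5 μM dexamethasone for 1 day; buffer pH 7.4 KH2PO4/EDTA/KCl. 10 μM diazepam defined nonspecific binding; filter-trapped radioactivity counted, in triplicate.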

GABAA R (α5β2γ2) = target: T1, GABAA R (α5β2γ2) (Homo sapiens, UniProt P18507+P31644); test: Positive allosteric modulator activity: potentiation of EC20 GABA current in oocytes; format: cell-based
T1 construct: expressed in transfected cells
Method in brief: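 Xenopus oocytes injected with 1 ng α5:β2:γ2 cDNA (1:1:10 by weight), tested day 2, voltage-clamped at −60 mV under MBS superfusion.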

[1] = read-out: GABA α5 Functional Data: potentiation, @ 100 nM, EC20 GABA, ranges of the column heads
[2] = ranges of the column heads, [3H]Ro15-1788, Ltk cell membranes
[3] = read-out: GABA α5 Functional Data: potentiation

α5β3γ2 GABAA R, sequence (P31644 32-462): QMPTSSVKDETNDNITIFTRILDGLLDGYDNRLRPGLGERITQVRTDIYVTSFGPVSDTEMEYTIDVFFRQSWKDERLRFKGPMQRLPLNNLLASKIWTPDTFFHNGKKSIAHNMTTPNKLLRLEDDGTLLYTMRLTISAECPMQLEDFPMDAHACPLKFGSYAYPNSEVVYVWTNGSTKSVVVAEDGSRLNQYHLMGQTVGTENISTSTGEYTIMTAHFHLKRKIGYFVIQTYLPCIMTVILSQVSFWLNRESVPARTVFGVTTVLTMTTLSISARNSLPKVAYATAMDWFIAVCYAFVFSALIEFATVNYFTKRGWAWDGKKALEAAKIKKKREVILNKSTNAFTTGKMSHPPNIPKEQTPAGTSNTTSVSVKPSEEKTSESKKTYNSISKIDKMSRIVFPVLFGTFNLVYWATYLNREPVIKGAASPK
α5β3γ2 GABAA R, sequence (P28472 26-473 partner): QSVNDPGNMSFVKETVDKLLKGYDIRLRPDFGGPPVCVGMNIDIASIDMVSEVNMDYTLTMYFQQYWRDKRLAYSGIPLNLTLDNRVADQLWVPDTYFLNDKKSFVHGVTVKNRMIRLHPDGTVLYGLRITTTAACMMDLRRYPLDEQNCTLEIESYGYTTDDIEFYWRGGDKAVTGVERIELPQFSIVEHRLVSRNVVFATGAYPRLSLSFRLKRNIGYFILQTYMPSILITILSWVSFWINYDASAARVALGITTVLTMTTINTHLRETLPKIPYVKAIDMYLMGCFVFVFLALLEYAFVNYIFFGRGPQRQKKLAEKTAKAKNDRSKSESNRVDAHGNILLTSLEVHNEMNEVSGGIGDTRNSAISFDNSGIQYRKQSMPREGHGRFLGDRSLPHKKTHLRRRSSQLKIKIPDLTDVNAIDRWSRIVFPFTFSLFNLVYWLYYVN
α5β3γ2 GABAA R, sequence (P18507 40-475): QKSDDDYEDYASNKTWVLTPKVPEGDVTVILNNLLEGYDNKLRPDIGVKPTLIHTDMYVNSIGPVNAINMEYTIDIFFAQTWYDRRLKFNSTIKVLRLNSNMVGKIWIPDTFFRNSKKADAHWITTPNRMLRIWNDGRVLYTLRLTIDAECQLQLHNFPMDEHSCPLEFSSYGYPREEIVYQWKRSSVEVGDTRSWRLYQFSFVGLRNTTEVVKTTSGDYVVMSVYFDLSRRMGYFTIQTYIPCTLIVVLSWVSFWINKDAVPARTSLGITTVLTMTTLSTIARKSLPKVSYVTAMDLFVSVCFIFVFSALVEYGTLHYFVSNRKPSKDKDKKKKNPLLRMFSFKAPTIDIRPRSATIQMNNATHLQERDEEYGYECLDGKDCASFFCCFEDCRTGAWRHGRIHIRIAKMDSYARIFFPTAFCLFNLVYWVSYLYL
T1 sequence (P31644 32-462): as the sequence (P31644 32-462) above
T1 sequence (P47870 25-512 partner limits assumed): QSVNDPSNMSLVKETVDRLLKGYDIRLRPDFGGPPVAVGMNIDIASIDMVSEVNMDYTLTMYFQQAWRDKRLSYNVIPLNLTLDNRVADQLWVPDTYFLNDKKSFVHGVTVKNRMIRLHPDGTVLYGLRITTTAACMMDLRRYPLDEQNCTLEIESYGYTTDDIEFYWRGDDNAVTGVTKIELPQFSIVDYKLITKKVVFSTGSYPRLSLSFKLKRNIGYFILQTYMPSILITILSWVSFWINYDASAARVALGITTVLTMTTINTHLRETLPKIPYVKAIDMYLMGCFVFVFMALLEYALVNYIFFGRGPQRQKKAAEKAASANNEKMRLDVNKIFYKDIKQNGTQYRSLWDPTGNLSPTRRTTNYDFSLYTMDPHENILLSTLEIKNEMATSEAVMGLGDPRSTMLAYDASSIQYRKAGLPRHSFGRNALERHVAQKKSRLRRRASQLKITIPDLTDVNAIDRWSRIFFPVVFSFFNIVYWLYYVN
T1 sequence (P18507 40-475): as the sequence (P18507 40-475) above

Ki (α5β3γ2 GABAA R; [2]) [nM]	activation at 0.1 µM (GABAA R (α5β2γ2); [3]) [%]	Compound	Ki (α5β3γ2 GABAA R) [nM]	activation at 0.1 µM (GABAA R (α5β2γ2); [1]) [%]
–	–	COc1ccc2c(c1)-c1nn(CC3CCCO3)cc1Cc1c(-c3nc(C(F)(F)F)no3)ncn1-2 (centres unmarked) [Compound 264]	< 100	5 to 20
–	–	CCn1cc2c(n1)-c1cc(OC)ccc1-n1cnc(-c3nc(CN4CCCC4)no3)c1C2 [Compound 267]	< 100	5 to 20
–	–	CC(C)n1cc2c(n1)-c1cc(Cl)ccc1-n1cnc(-c3noc(C4COCCO4)n3)c1C2 (centres unmarked) [Compound 268]	< 100	20 to 50
–	–	COCc1coc(-c2ncn3c2Cc2cn(C)nc2-c2cc(OC)ccc2-3)n1 [Compound 269]	< 100	5 to 20
–	–	COCc1noc(-c2ncn3c2Cc2cn(C4CCOC4)nc2-c2cc(Cl)ccc2-3)n1 (centres unmarked) [Compound 275]	< 100	5 to 20
–	–	Cn1cc2c(n1)-c1cc(Cl)ccc1-n1cnc(-c3nc(CN4CCOCC4)co3)c1C2 [Compound 276]	< 100	20 to 50
–	–	CN(C)Cc1coc(-c2ncn3c2Cc2cn(C)nc2-c2cc(Cl)ccc2-3)n1 [Compound 277]	< 100	20 to 50
–	–	COc1ccc2c(c1)-c1nn(C3CCOC3)cc1Cc1c(-c3noc(COCC(F)(F)F)n3)ncn1-2 (centres unmarked) [Compound 279]	< 100	20 to 50
–	–	COC(C)(C)c1noc(-c2ncn3c2Cc2cn(CC4CCCO4)nc2-c2cc(Cl)ccc2-3)n1 (centres unmarked) [Compound 280]	< 100	20 to 50
–	–	Clc1ccc2c(c1)-c1nn(CC3CCCO3)cc1Cc1c(-c3nc(C4CCOC4)no3)ncn1-2 (centres unmarked) [Compound 281]	< 100	5 to 20
–	–	COc1ccc2c(c1)-c1nn(C)cc1Cc1c(-c3cnn(Cc4ccccn4)c3)ncn1-2 [Compound 282]	< 100	5 to 20
–	–	COc1ccc2c(c1)-c1nn(CC3CCCO3)cc1Cc1c(-c3noc(C(C)(C)OC)n3)ncn1-2 (centres unmarked) [Compound 283]	< 100	> 50
< 100	> 50	COCc1coc(-c2ncn3c2Cc2cn(C)nc2-c2cc(Cl)ccc2-3)n1 [Compound 284]	–	–
–	–	Cn1cc2c(n1)-c1cc(Cl)ccc1-n1cnc(-c3nc(COC4COC4)co3)c1C2 [Compound 285]	< 100	> 50
–	–	COc1ccc2c(c1)-c1nn(C)cc1Cc1c(-c3ncc(C)o3)ncn1-2 [Compound 286]	< 100	5 to 20
< 100	20 to 50	COc1ccc2c(c1)-c1nn(CC3CCOC3)cc1Cc1c(-c3ncc(C)o3)ncn1-2 (centres unmarked) [Compound 287]	–	–
–	–	COCc1noc(-c2ncn3c2Cc2cn(CC4CCCO4)nc2-c2cc(Cl)ccc2-3)n1 (centres unmarked) [Compound 288]	< 100	> 50
–	–	COc1ccc2c(c1)-c1nn(C)cc1Cc1c(-c3nnc(C(F)(F)F)o3)ncn1-2 [Compound 289]	< 100	5 to 20
–	–	COc1ccc2c(c1)-c1nn(C)cc1Cc1c(-c3nnc(C)o3)ncn1-2 [Compound 290]	< 100	20 to 50
–	–	COc1ccc2c(c1)-c1nn(CC3CCCO3)cc1Cc1c(-c3noc(COCC(F)(F)F)n3)ncn1-2 (centres unmarked) [Compound 292]	< 100	5 to 20
–	–	COCc1nc(-c2ncn3c2Cc2cn(CC4CCCO4)nc2-c2cc(OC)ccc2-3)no1 (centres unmarked) [Compound 293]	< 100	20 to 50
–	–	COc1ccc2c(c1)-c1nn(CC3CCCO3)cc1Cc1c(-c3noc(C4COC4)n3)ncn1-2 (centres unmarked) [Compound 294]	< 100	> 50
–	–	COc1ccc2c(c1)-c1nn(CC3CCCO3)cc1Cc1c(-c3noc(C(F)(F)F)n3)ncn1-2 (centres unmarked) [Compound 295]	< 100	20 to 50
–	–	COc1ccc2c(c1)-c1nn(C)cc1Cc1c(-c3noc(COC(C)(C)C)n3)ncn1-2 [Compound 296]	< 100	20 to 50

Compound	Ki (α5β3γ2 GABAA R; [2]) [nM]	activation at 0.1 µM (GABAA R (α5β2γ2); [3]) [%]	Ki (α5β3γ2 GABAA R) [nM]	activation at 0.1 µM (GABAA R (α5β2γ2); [1]) [%]
CCn1cc2c(n1)-c1cc(Cl)ccc1-n1cnc(-c3nc(CN4CCCC4)no3)c1C2 [Compound 266]	< 100	–	–	5 to 20
